Assay results as given in publication PMC11822212, “High-throughput screening identifies Aurora kinase B as a critical therapeutic target for Merkel cell carcinoma” (Nature Communications, 2025).
Structures can show the parent of a compound that is named as a salt. Where two headings read alike, the source gives them in different places.

Columns and labels:
Test in all cases: qHTS cell viability (CellTiter-Glo, 72 h; primary and follow-up small molecule screen)
Format in all cases: cell-based, human
MKL-2 cells (VP-MCC) = test system: MKL-2 cells (VP-MCC)
MCC26 cells (VN-MCC) = test system: MCC26 cells (VN-MCC)
WAGA cells (VP-MCC) = test system: WAGA cells (VP-MCC)
MCC13 cells (VN-MCC) = test system: MCC13 cells (VN-MCC)
UISO cells (VN-MCC) = test system: UISO cells (VN-MCC)
MKL-1 cells (VP-MCC) = test system: MKL-1 cells (VP-MCC)
[1] = follow-up screen, MKL-2, replicate 1
[2] = follow-up screen, MKL-2, replicate 2
[3] = follow-up screen, MKL-2, replicate 3
[4] = follow-up screen, MCC26, replicate 1
[5] = follow-up screen, MCC26, replicate 2
[6] = follow-up screen, MCC26, replicate 3
[7] = follow-up screen, WAGA, replicate 1
[8] = follow-up screen, WAGA, replicate 2
[9] = follow-up screen, WAGA, replicate 3
[10] = follow-up screen, MCC13, replicate 1
[11] = follow-up screen, MCC13, replicate 2
[12] = follow-up screen, MCC13, replicate 3
[13] = follow-up screen, UISO, replicate 1
[14] = follow-up screen, UISO, replicate 2
[15] = follow-up screen, UISO, replicate 3
[16] = follow-up screen, MKL-1, replicate 1
[17] = follow-up screen, MKL-1, replicate 2
[18] = follow-up screen, MKL-1, replicate 3

SMILES	Area under the dose-response curve (AUC) MKL-2 Replicate 1 (MKL-2 cells (VP-MCC); [1])	Area under the dose-response curve (AUC) MKL-2 Replicate 2 (MKL-2 cells (VP-MCC); [2])	Area under the dose-response curve (AUC) MKL-2 Replicate 3 (MKL-2 cells (VP-MCC); [3])	Area under the dose-response curve (AUC) MCC26 Replicate 1 (MCC26 cells (VN-MCC); [4])	Area under the dose-response curve (AUC) MCC26 Replicate 2 (MCC26 cells (VN-MCC); [5])	Area under the dose-response curve (AUC) MCC26 Replicate 3 (MCC26 cells (VN-MCC); [6])	Area under the dose-response curve (AUC) WAGA Replicate 1 (WAGA cells (VP-MCC); [7])	Area under the dose-response curve (AUC) WAGA Replicate 2 (WAGA cells (VP-MCC); [8])	Area under the dose-response curve (AUC) WAGA Replicate 3 (WAGA cells (VP-MCC); [9])	Area under the dose-response curve (AUC) MCC13 Replicate 1 (MCC13 cells (VN-MCC); [10])	Area under the dose-response curve (AUC) MCC13 Replicate 2 (MCC13 cells (VN-MCC); [11])	Area under the dose-response curve (AUC) MCC13 Replicate 3 (MCC13 cells (VN-MCC); [12])	Area under the dose-response curve (AUC) UISO Replicate 1 (UISO cells (VN-MCC); [13])	Area under the dose-response curve (AUC) UISO Replicate 2 (UISO cells (VN-MCC); [14])	Area under the dose-response curve (AUC) UISO Replicate 3 (UISO cells (VN-MCC); [15])	Area under the dose-response curve (AUC) MKL-1 Replicate 1 (MKL-1 cells (VP-MCC); [16])	Area under the dose-response curve (AUC) MKL-1 Replicate 2 (MKL-1 cells (VP-MCC); [17])	Area under the dose-response curve (AUC) MKL-1 Replicate 3 (MKL-1 cells (VP-MCC); [18])	other results
C[C@H]1CCC/C=C/[C@@H]2C[C@H](O)C[C@H]2[C@H](O)/C=C/C(=O)O1 [Cyanein]	238.6	217.1	214.7	231.7	265.8	194.4	224.1	259.2	236.6	216.1	230.2	238.1	206.3	227.9	213.5	208.9	220.0	232.6	
CC(=O)[C@]1(O)Cc2c(O)c3c(c(O)c2[C@@H](O[C@H]2C[C@H](N)[C@H](O)[C@H](C)O2)C1)C(=O)c1ccccc1C3=O [Idarubicin hydrochloride]	203.6	200.3	265.0	293.6	292.8	227.6	205.3	258.0	233.3	321.5	353.4	356.2	184.7	180.9	186.4	222.7	242.3	233.3	
COc1cccc2c1C(=O)c1c(O)c3c(c(O)c1C2=O)C[C@@](O)(C(C)=O)C[C@@H]3O[C@H]1C[C@H](N)[C@H](O)[C@H](C)O1 [Daunorubicin]																			Area under the dose-response curve (AUC) MKL-2 Replicate 1 (MKL-2 cells (VP-MCC)): 202.9; Area under the dose-response curve (AUC) MKL-2 Replicate 2 (MKL-2 cells (VP-MCC)): 215.3; Area under the dose-response curve (AUC) MKL-2 Replicate 3 (MKL-2 cells (VP-MCC)): 253.2; Area under the dose-response curve (AUC) MCC26 Replicate 1 (MCC26 cells (VN-MCC)): 309.1; Area under the dose-response curve (AUC) MCC26 Replicate 2 (MCC26 cells (VN-MCC)): 298.6; Area under the dose-response curve (AUC) MCC26 Replicate 3 (MCC26 cells (VN-MCC)): 273.9; Area under the dose-response curve (AUC) WAGA Replicate 1 (WAGA cells (VP-MCC)): 254.8; Area under the dose-response curve (AUC) WAGA Replicate 2 (WAGA cells (VP-MCC)): 263.7; Area under the dose-response curve (AUC) WAGA Replicate 3 (WAGA cells (VP-MCC)): 266.2; Area under the dose-response curve (AUC) MCC13 Replicate 1 (MCC13 cells (VN-MCC)): 326.2; Area under the dose-response curve (AUC) MCC13 Replicate 2 (MCC13 cells (VN-MCC)): 316.0; Area under the dose-response curve (AUC) MCC13 Replicate 3 (MCC13 cells (VN-MCC)): 313.0; Area under the dose-response curve (AUC) UISO Replicate 1 (UISO cells (VN-MCC)): 226.5; Area under the dose-response curve (AUC) UISO Replicate 2 (UISO cells (VN-MCC)): 238.3; Area under the dose-response curve (AUC) UISO Replicate 3 (UISO cells (VN-MCC)): 225.1; Area under the dose-response curve (AUC) MKL-1 Replicate 1 (MKL-1 cells (VP-MCC)): 228.6; Area under the dose-response curve (AUC) MKL-1 Replicate 2 (MKL-1 cells (VP-MCC)): 217.7; Area under the dose-response curve (AUC) MKL-1 Replicate 3 (MKL-1 cells (VP-MCC)): 240.0
